Earlier results on one compound are cited in patent US20170080013A1, “METHODS AND COMPOSITIONS FOR DERMATOLOGICAL USE COMPRSING HYDROCORTISONE ACETATE AND BIOPOLYMERS” (APEX LABORATORIES PRIVATE LIMITED, priority 2015, published 2017).

`CC(=O)OCC(=O)[C@@]1(O)CC[C@H]2[C@@H]3CCC4=CC(=O)CC[C@]4(C)[C@H]3[C@@H](O)C[C@@]21C` [Hydrocortisone acetate, 11β, 17-dihydroxy-3, 20-dioxopregn-4-en-21-yl acetate]: the Solubility in alcohol result (alcohol) is recorded as “slightly soluble”. The Solubility in chloroform entry (chloroform) is “slightly soluble”. Further, the Solubility in water entry (water) is on record as “insoluble”.
